# According to patent US6096732A, “Steroid esters, process for their production and their pharmaceutical use” (Schering AG, priority 1996, dated 2000):
# Tests used:
# [1] = format: physicochemical
# Description: Solubility Studies of the Esters that are Mentioned in Examples 1 to 6
# In the following table, the solubility of compounds 1 to 6 is depicted in comparison to unesterified reference compound 1 (Z)-6'-(4-cyanophenyl)-9,11α-dihydro-17β-hydroxy-17α-(3-hydroxy-1-propenyl)-4'H-naphtho[3',2',1':10,9,11]estra-4-en-3-one (Example 1 in DE-A 4216003). For solubility, the temperature is indicated in °C., in which 50 mg of substance is dissolved in 1 ml of a 1:4 benzyl benzoate/castor oil mixture.
# [2] = format: physicochemical; remark: listed apart in the source
# Description: Studies on Hydrolytic Stability of the Esters According to the Invention
# The hydrolytic stability of the esters under strongly basic conditions can be used to assess whether the compounds have adequate stability under physiological conditions.
# In each case, 10 mg of compounds 1, 3 and 4 was dissolved at 23° C. in 10 ml of dioxane and mixed with 1 ml of a 1N aqueous sodium hydroxide solution. In each case, 11 samples were drawn, acidified to pH 6 and the ester:alcohol ratio was determined per HPLC. In the graphic visualization,the portion of ester is depicted in percent as a function of the saponification period in hours.
# [3] = test system: NMU-induced breast tumor of rats; experiment: Influence of the tumor growth in N-Methyl-N-nitrosourea (NMU) model in rats; format: in vivo, rat (Sprague-Dawley); conditions: p.o., 6 times per week, various dosages; vs. reference compound 3
# Description: Influence of the Tumor Growth in N-Methyl-N-nitrosourea (NMU)--Model in Rats
# The growth of the NUM-induced breast tumor of rats is largely dependent on estrogens and gestagens and less on prolactin. Estrogen and progesterone antagonists result in inhibiting tumor growth.
# Female rats (Sprague-Dawley), 55 (±3) days old; at least 9 animals per group.
# The animals receive 50 mg/kg of NMU on a one-time basis. Then, the animals are checked once a week by palpation for tumor development. About 6 to 8 weeks after NMU treatment, one or more tumors develop per animal. At a minimum size of 150 mm^2 /tumor/animal, treatment (6 times per week) begins with the test substance, the determination of body weight and tumor size (with the aid of a sliding gauge; once per week).
# The results for compound 1 are graphically depicted in the following figures for various dosages in each case in comparison to the untreated control, an ovariectomy group as well as reference compound 3, (Z)-6'-(4-cyanophenyl)-9,11α-dihydro-17β-hydroxy-17α-[3-(1-oxo-2-methylpropoxy)-1-propenyl]-4'H-naphtho[3',2',1':10,9,11]estr-4-en-3-one. […] This is surprising because of the only slight structural differences. [drawing 5] Tumor-Inhibiting Action on the Hormone-Sensitive Human Breast Cancer Cell Line ZR-75.
# [4] = test system: human, tamoxifen-resistant ZR-75 breast cancer; experiment: Tumor-inhibiting action on human, tamoxifen-resistant ZR-75 breast cancer in nude mice; format: in vivo; conditions: s.c., 8 weeks, vs. untreated control; graph only
# Description: Breast cancer cell line ZR-75 is an estrogen- and progesterone receptor-positive human line, which can be transplanted serially in the thymic aplastic nude mouse. […] An underline that is used here developed a tamoxifen resistance after a prolonged treatment period.
# Female nude/nude mice, 4 weeks old.
# Formulation and Administration of Test Substances:
# The test substances are dissolved in benzyl benzoate and castor oil (1+4), and the one-time dose is administered at a volume of 0.1 ml s.c. Treatment begins about 7 weeks after implantation (treatment of established tumors). The treatment time is at most 10 weeks.
# The tumor fragments of several donor animals are implanted in the animals s.c. on both sides in the flanks. On the day of implantation and on day 60, all animals are implanted with a tamoxifen-releasing pellet (5 mg).
# The mice are randomized 7 weeks after implantation of the tumors, and the treatment is begun and carried out for 8 weeks.
# Tumor growth is determined by determination of the tumor surface area using a sliding gauge. The tumor surface area is calculated from the product of the longest diameter of the tumor and the diameter that is perpendicular to said longest diameter. At the end of the test, the animals are killed, the tumors are prepared outside and weighed.
# [5] = test system: breast cancer cell line ZR-75; conditions: standard treatment; cited from earlier work
SMILES,Solubility (temperature at which 50 mg of substance is dissolved in 1 ml) [1],stability compared to reference compound 3 [2],stability under strongly basic conditions [2],other results
"CC(C)CC(=O)OC/C=C\[C@]1(O)CC[C@H]2[C@@H]3CCC4=CC(=O)CC[C@@]45Cc4cc(-c6ccc(C#N)cc6)ccc4[C@@H](C[C@@]21C)[C@@H]35 [Compound 1, (Z)-6'-(4-Cyanophenyl)-9,11α-dihydro-17β-hydroxy-17α-[3-(1-oxo-3-methylbutoxy)-1-propenyl]-4'H-naphtho[3',2',1':10,9,11]estr-4-en-3-one]",50 °C,significantly improved compared to reference compound 3,very good stability,tumor-inhibiting action [3]: tumor-inhibiting action that is superior to that of reference compound 3; inhibition of the course of growth of the tumors [4]: inhibition of the course of growth of the tumors
"CC(C)C(=O)OCC/C=C\[C@]1(O)CC[C@H]2[C@@H]3CCC4=CC(=O)CC[C@@]45Cc4cc(-c6ccc(C#N)cc6)ccc4[C@@H](C[C@@]21C)[C@@H]35 [Compound 2, (Z)-6'-(4-Cyanophenyl)-9,11α-dihydro-17β-hydroxy-17α-[4-(1-oxo-2-methylpropoxy)-1-butenyl]-4'H-naphtho[3',2',1':10,9,11]estr-4-en-3-one]",23 °C,,,
"CC(C)CC(=O)OCC/C=C\[C@]1(O)CC[C@H]2[C@@H]3CCC4=CC(=O)CC[C@@]45Cc4cc(-c6ccc(C#N)cc6)ccc4[C@@H](C[C@@]21C)[C@@H]35 [Compound 3, (Z)-6'-(4-cyanophenyl)-9,11α-dihydro-17β-hydroxy-17α-[4-(1-oxo-3-methylbutoxy)-1-butenyl]-4'H-naphtho[3',2',1':10,9,11]estr-4-en-3-one]",23 °C,significantly improved compared to reference compound 3,very good stability,
"CC(C)CC(=O)OCC/C=C\[C@]1(O)CC[C@H]2[C@@H]3CCC4=CC(=O)CC[C@@]45Cc4cc(-c6ccc(F)cc6)ccc4[C@@H](C[C@@]21C)[C@@H]35 [Compound 4, (Z)-9,11α-dihydro-6'-(4-fluorophenyl)-17β-hydroxy-17α-[4-(1-oxo-3-methylbutoxy)-1-butenyl]-4'H-naphtho[3',2',1':10,9,11]estr-4-en-3-one]",50 °C,significantly improved compared to reference compound 3,very good stability,
"CC(C)CC(=O)OC/C=C\[C@]1(O)C=C[C@H]2[C@@H]3CCC4=CC(=O)CC[C@@]45Cc4cc(-c6ccc(C#N)cc6)ccc4[C@@H](C[C@@]21C)[C@@H]35 [Compound 5, (Z)-6'-(4-Cyanophenyl)-9,11α-dihydro-17β-hydroxy-17α-[3-(1-oxo-3-methylbutoxy)-1-propenyl]-4'H-naphtho[3',2',1':10,9,11]estra-4,15-dien-3-one]",23 °C,,,
"CC(C)C(=O)OC/C=C\[C@]1(O)C=C[C@H]2[C@@H]3CCC4=CC(=O)CC[C@@]45Cc4cc(-c6ccc(C#N)cc6)ccc4[C@@H](C[C@@]21C)[C@@H]35 [Compound 6, (Z)-6'-(4-Cyanophenyl)-9,11α-dihydro-17β-hydroxy-17α-[3-(1-oxo-2-methylpropoxy)-1-propenyl]-4'H-naphtho[3',2',1':10,9,11]estra-4,15-dien-3-one]",< 50 °C,,,
"C[C@]12C[C@@H]3c4ccc(-c5ccc(C#N)cc5)cc4C[C@]45CCC(=O)C=C4CC[C@H]([C@H]35)[C@@H]1CC[C@@]2(O)/C=C\CO [Reference Compound 1, (Z)-6'-(4-cyanophenyl)-9,11α-dihydro-17β-hydroxy-17α-(3-hydroxy-1-propenyl)-4'H-naphtho[3',2',1':10,9,11]estra-4-en-3-one, reference compound]",> 100 °C,,,
"CC(C)C(=O)OC/C=C\[C@]1(O)CC[C@H]2[C@@H]3CCC4=CC(=O)CC[C@@]45Cc4cc(-c6ccc(C#N)cc6)ccc4[C@@H](C[C@@]21C)[C@@H]35 [Reference Compound 3, (Z)-6'-(4-cyanophenyl)-9,11α-dihydro-17β-hydroxy-17α-[3-(1-oxo-2-methylpropoxy)-1-propenyl]-4'H-naphtho[3',2',1':10,9,11]estr-4-en-3-one, reference compound]",100 °C,,,
CC/C(=C(\c1ccccc1)c1ccc(OCCN(C)C)cc1)c1ccccc1 [tamoxifen],,,,response of ZR-75 to tamoxifen [5]: inhibiting growth
